Marks after values point to notes of the source that are not given here.
System: adult subjects with psoriasis
Test: Phase II/2b clinical study in plaque psoriasis: efficacy and patient-reported outcomes
Assay type: in vivo, human
Conditions: for PGA response rate (primary endpoint): interim analysis; for subjects with ≥4 improvement in pruritus NRS score from baseline: baseline NRS score ≥4; for PGA response rate (PGA 0 or 1 and ≥2-grade improvement): mITT OC; for PASI50 response rate / PASI75 response rate / PASI90 response rate: Week 16; for PGA treatment success: Week 16 (4 weeks after end of treatment)
Text: This was a multicenter (United States, Canada, and Japan), randomized, double-blind (Sponsor-unblind), vehicle-controlled, 6-arm, parallel-group, dose-finding study in adult subjects with psoriasis. Certain study personnel at each site were unblinded to dose-frequency.
The study consisted of 3 periods: up to 4 weeks Screening, 12 weeks double-blind treatment, and 4 weeks post-treatment follow-up. Study visits occurred at Screening; Baseline; weeks 1, 2, 4, 8, and 12 during the treatment period; and 2 and 4 weeks after the last application of study treatment (i.e., at weeks 14 and 16). Additional visits could occur, as needed, for early withdrawals or to follow-up on any skin reactions or ongoing AEs. A subject's total duration of study participation was approximately 16 to 20 weeks.
Two concentrations of Tapinarof cream (0.5% and 1%) and a vehicle control were evaluated following application to all psoriasis lesions (except on the scalp) once (QD) or twice daily (BID) for 12 weeks. There were no planned dose adjustments during the study.
Efficacy was assessed by using a 5-point static Physician Global Assessment (PGA) (0-4 scale), the Psoriasis Area and Severity Index (PASI), % BSA involvement, target lesion assessments (erythema, scaling, and plaque thickness), and subject-reported itch/pruritus severity using a numeric rating scale (NRS) (from the Psoriasis Symptom Diary [PSD]). Additional subject-reported outcomes included the daily PSD (which also contained severity and bother items for 3 additional symptoms). Investigator global impression of change item (assessing change in severity of psoriasis symptoms) and 2 subject global impressions of change items (assessing change in severity of psoriasis symptoms and change in severity of itch/pruritus) were also assessed.
Physician Global Assessment: The PGA is a clinical tool for assessing the current state/severity of a subject's psoriasis. It is a static 5-point morphological assessment of overall disease severity, as determined by the investigator, using the clinical characteristics of erythema, plaque thickness, and scaling as guidelines. At each specified time point, the PGA is made without reference to previous scores. Variations of the PGA are frequently used in clinical studies because it is a simple assessment that is more similar to the assessments actually used in clinical practice. Scoring system ranges from 0 (=Clear) to 4 (=Severe).
Psoriasis Area and Severity Index: The PASI scoring system is a widely-used standard clinical tool for assessing the severity of psoriasis that takes into account the overall severity of erythema (redness), thickness (induration), and scale, as well as the extent of BSA affected with psoriasis. The 3 clinical signs are each graded on a 5 point scale (0 to 4) and the % BSA affected is scored on a 7-point scale (0 to 6) for each of the 4 specified body regions (head, upper extremities, trunk, and lower extremities). The individual scores are multiplied by a weighted factor for each body region; the sum of these scores gives the overall PASI score. Higher scores indicate more severe disease. PASI is a static assessment made without reference to previous scores.
Body Surface Area: The extent of BSA affected by psoriasis is a general indicator of disease severity and was measured throughout the study. The extent of BSA to which study treatment was applied was also recorded. For the purpose of approximate clinical estimation, the total palmar surface of the palm plus 5 digits was assumed to be approximately equivalent to 1% BSA.
Target Lesion Grading: A single target lesion was selected at Baseline to assess efficacy in treating a discrete area rather than an overall average of all areas. For that lesion, the severity of erythema, scaling, and plaque thickness was assessed by the investigator on a 5-point scale ranging from “0=none” to “4=severe”. […]

With CC(C)c1c(O)cc(/C=C/c2ccccc2)cc1O [Tapinarof, 3,5-Dihydroxy-4-isopropyl-trans-stilbene] the “Target lesion Erythema, percent change from Baseline (Mean)” value (“Target lesion Erythema, percent change” below) (1% BID, Early WD) was −46.67%, the “Target lesion Plaque thickness, percent change from Baseline (Mean)” value (1% BID, Early WD) was −46.67% and the “Target lesion Scaling, percent change from Baseline (Mean)” value (from here on “Target lesion Scaling, percent change”) (1% BID, Early WD) was −52.50%. For the same molecule, the “PGA response at Week 12” value (1% BID, Fitzpatrick skin type I/II) was 60%, the “PGA response at Week 12” value (1% BID, Fitzpatrick skin type III/IV) was 54% and the “PGA response at Week 12” value (1% BID, Fitzpatrick skin type V/VI) was 100%. For the same molecule, the “Target lesion Erythema, percent change” value (1% BID, Follow-up Week 14) was −65.42%, the “Target lesion Plaque thickness, percent change from Baseline (Mean)” value (1% BID, Follow-up Week 14) was −67.50% and the “Target lesion Scaling, percent change” value (1% BID, Follow-up Week 14) was −67.50%. The “Target lesion Erythema, percent change” value (1% BID, Follow-up/Week 16) was −78.33%, the “Target lesion Plaque thickness, percent change from Baseline (Mean)” value (1% BID, Follow-up/Week 16) was −76.67% and the “Target lesion Scaling, percent change” value (1% BID, Follow-up/Week 16) was −77.50%. For the same molecule, the “Target lesion Erythema, percent change” value (1% BID, Week 1) was −12.50%, the “Target lesion Plaque thickness, percent change from Baseline (Mean)” value (1% BID, Week 1) was −18.75% and the “Target lesion Scaling, percent change” value (1% BID, Week 1) was −25.00%. For the same molecule, the “Target lesion Erythema, percent change” value (1% BID, Week 2) was −25.52%, the “Target lesion Plaque thickness, percent change from Baseline (Mean)” value (1% BID, Week 2) was −33.33% and the “Target lesion Scaling, percent change” value (1% BID, Week 2) was −32.55%. The “Target lesion Erythema, percent change” value (1% BID, Week 4) was −44.94%, the “Target lesion Plaque thickness, percent change from Baseline (Mean)” value (1% BID, Week 4) was −48.51% and the “Target lesion Scaling, percent change” value (1% BID, Week 4) was −55.65%. The “Target lesion Erythema, percent change” value (1% BID, Week 8) was −62.50%, the “Target lesion Plaque thickness, percent change from Baseline (Mean)” value (1% BID, Week 8) was −62.82% and the “Target lesion Scaling, percent change” value (1% BID, Week 8) was −70.51%. The “PGA response rate (primary endpoint)” value (1% BID, Week 8) was 42%, the “Mean change in nine items of the PSD from baseline” value (1% BID, Week 12) was −4.5^‡ and the “Mean change in total target lesion grading scores from baseline” value (1% BID, Week 12) was −6.9*. The “Target lesion Erythema, percent change” value (1% BID, Week 12) was −77.65%, the “Target lesion Plaque thickness, percent change from Baseline (Mean)” value (1% BID, Week 12) was −81.82% and the “Target lesion Scaling, percent change” value (1% BID, Week 12) was −78.79%. For the same molecule, the “absolute mean change in percent BSA affected from baseline” value (1% BID, Week 12) was 4.9, the “decrease in total target lesion grading scores (mean change)” value (1% BID, Week 12) was 6.9 and the “subjects with ≥4 improvement in pruritus NRS score from baseline” value (1% BID, Week 12) was 55%. For the same molecule, the “PGA response rate (PGA 0 or 1 and ≥2-grade improvement)” value (1% BID, Week 12) was 65%, the PASI50 response rate (1% BID) was 83% and the PASI75 response rate (1% BID) was 63%. For the same molecule, the PASI90 response rate (1% BID) was 38%, the PGA treatment success (1% BID) was 58% and the “subjects with severity of pruritus symptoms rated very/moderately improved” value (1% BID, baseline to Week 12) was 70%. The “PGA response at Week 12” value (1% BID, psoriasis duration 5 years to <10 years) was 67%, the “PGA response at Week 12” value (1% BID, psoriasis duration 6 months to <5 years) was 50% and the “PGA response at Week 12” value (1% BID, psoriasis duration ≥10 years) was 73%. The “PGA response at Week 12” value (1% BID, ≥10% BSA affected at baseline) was 64%, the “PASI75 responders who maintained response from Week 12 to Week 16” value (1% QD) was 93% and the “PGA responders who maintained response from Week 12 to Week 16” value (1% QD) was 86%. The “difference in PGA response rate, active minus vehicle” value (1% QD-vehicle QD, Week 12) was 51.0%, the “PGA response at Week 12” value (1% QD, 1 to <10% BSA affected at baseline) was 60% and the “Target lesion Erythema, percent change” value (1% QD, Early WD) was −47.62%. For the same molecule, the “Target lesion Plaque thickness, percent change from Baseline (Mean)” value (1% QD, Early WD) was −60.71%, the “Target lesion Scaling, percent change” value (1% QD, Early WD) was −57.14% and the “PGA response at Week 12” value (1% QD, Fitzpatrick skin type I/II) was 67%. The “PGA response at Week 12” value (1% QD, Fitzpatrick skin type III/IV) was 47%, the “PGA response at Week 12” value (1% QD, Fitzpatrick skin type V/VI) was 75% and the “Target lesion Erythema, percent change” value (1% QD, Follow-up Week 14) was −70.65%. For the same molecule, the “Target lesion Plaque thickness, percent change from Baseline (Mean)” value (1% QD, Follow-up Week 14) was −70.29%, the “Target lesion Scaling, percent change” value (1% QD, Follow-up Week 14) was −67.39% and the “Target lesion Erythema, percent change” value (1% QD, Follow-up/Week 16) was −74.24%. For the same molecule, the “Target lesion Plaque thickness, percent change from Baseline (Mean)” value (1% QD, Follow-up/Week 16) was −65.91%, the “Target lesion Scaling, percent change” value (1% QD, Follow-up/Week 16) was −71.59% and the “Target lesion Erythema, percent change” value (1% QD, Week 1) was −17.14%. The “Target lesion Plaque thickness, percent change from Baseline (Mean)” value (1% QD, Week 1) was −13.10%, the “Target lesion Scaling, percent change” value (1% QD, Week 1) was −24.29% and the “Target lesion Erythema, percent change” value (1% QD, Week 2) was −35.68%. The “Target lesion Plaque thickness, percent change from Baseline (Mean)” value (1% QD, Week 2) was −30.47%, the “Target lesion Scaling, percent change” value (1% QD, Week 2) was −32.81% and the “Target lesion Erythema, percent change” value (1% QD, Week 4) was −51.88%. For the same molecule, the “Target lesion Plaque thickness, percent change from Baseline (Mean)” value (1% QD, Week 4) was −47.04%, the “Target lesion Scaling, percent change” value (1% QD, Week 4) was −53.49% and the “Target lesion Erythema, percent change” value (1% QD, Week 8) was −65.06%. The “Target lesion Plaque thickness, percent change from Baseline (Mean)” value (1% QD, Week 8) was −60.90%, the “Target lesion Scaling, percent change” value (1% QD, Week 8) was −71.79% and the “PGA response rate (primary endpoint)” value (1% QD, Week 8) was 32%. For the same molecule, the “Mean change in nine items of the PSD from baseline” value (1% QD, Week 12) was −4.0^†, the “Mean change in total target lesion grading scores from baseline” value (1% QD, Week 12) was −7.0* and the “Target lesion Erythema, percent change” value (1% QD, Week 12) was −81.88%. For the same molecule, the “Target lesion Plaque thickness, percent change from Baseline (Mean)” value (1% QD, Week 12) was −70.29%, the “Target lesion Scaling, percent change” value (1% QD, Week 12) was −83.33% and the “absolute mean change in percent BSA affected from baseline” value (1% QD, Week 12) was 4.3. For the same molecule, the “decrease in total target lesion grading scores (mean change)” value (1% QD, Week 12) was 7.0, the “subjects with ≥4 improvement in pruritus NRS score from baseline” value (1% QD, Week 12) was 73% and the “PGA response rate (PGA 0 or 1 and ≥2-grade improvement)” value (1% QD, Week 12) was 56%. The PASI50 response rate (1% QD) was 77%, the PASI75 response rate (1% QD) was 58% and the PASI90 response rate (1% QD) was 42%. For the same molecule, the PGA treatment success (1% QD) was 54%, the “PGA response at Week 12” value (1% QD, psoriasis duration 5 years to <10 years) was 50% and the “PGA response at Week 12” value (1% QD, psoriasis duration 6 months to <5 years) was 80%. The “PGA response at Week 12” value (1% QD, psoriasis duration ≥10 years) was 50%, the “PGA response at Week 12” value (1% QD, ≥10% BSA affected at baseline) was 40% and the “subjects rating itch symptoms very improved or moderately improved” value (1% and 0.5% concentration groups, Week 12) was 70-77%. For the same molecule, the “subjects rated by investigators as very improved or moderately improved” value (1% concentration groups, Week 12) was > 80% and the “subjects rating pruritus symptoms very improved or moderately improved” value (1% groups, Week 12) was 70-76%.
